Measured values published in patent publication US10752584B2 (EMORY UNIVERSITY, priority 2016, dated 2020).
pEC50, pIC50: −log10 of the molar value. Entries after “also recorded” stand apart in the source; their conditions may differ. Where two headings read alike, the source gives them in different places.

What was measured:
[1] = system: mitochondrial DNA (COXII gene) in HepG2 cells; assay: Mitochondrial toxicity assay in HepG2 cells: mitochondrial DNA; format: cell-based; settings: for pIC50: read-out: IC50 MtDNA
Text: (§1) A real-time PCR assay to accurately quantify mitochondrial DNA content has been developed (see Stuyver L J, Lostia S, Adams M, Mathew J S, Pai B S, Grier J, Tharnish P M, Choi Y, Chong Y, Choo H, Chu C K, Otto M J, Schinazi R F. Antiviral activities and cellular toxicities of modified 2′,3′-dideoxy-2′,3′-didehydrocytidine analogs. Antimicrob. Agents Chemother. 2002; 46: 3854-60). This assay was used in all studies described in this application that determine the effect of compounds on mitochondrial DNA content. In this assay, low-passage-number HepG2 cells were seeded at 5,000 cells/well in collagen-coated 96-well plates. Test compounds were added to the medium to obtain final concentrations of 0 μM, 0.1 μM, 10 μM and 100 μM. On culture day 7, cellular nucleic acids were prepared by using commercially available columns (RNeasy 96 kit; Qiagen). […] The mitochondrial cytochrome c oxidase subunit II (COXII) gene and the β-actin or rRNA gene were amplified from 5 μl of the eluted nucleic acids using a multiplex Q-PCR protocol with suitable primers and probes for both target and reference amplifications. For COXII the following sense, probe and antisense primers were used, respectively: 5′-TGCCCGCCATCATCCTA-3′, 5′-tetrachloro-6-carboxyfluorescein-[…]-TAMRA-3′ and 5′-[…]-3′. For exon 3 of the β-actin gene (GenBank accession number E01094) the sense, probe, and antisense primers are 5′-GCGCGGCTACAGCTTCA-3′, 5′-6-[…]-3′ and 5′-[…]-3′, respectively. The primers and probes for the rRNA gene are commercially available from Applied Biosystems. Since equal amplification efficiencies are obtained for all genes, the comparative CT method was used to investigate potential inhibition of mitochondrial DNA synthesis. The comparative CT method uses arithmetic formulas in which the amount of target (COXII gene) is normalized to the amount of an endogenous reference (the β-actin or rRNA gene) and is relative to a calibrator (a control with no drug at day 7). The arithmetic formula for this approach is given by 2−ΔΔCT, where ΔΔCT is (CT for average target test sample CT for target control)−(CT for average reference test−CT for reference control) (see Johnson M R, K Wang, J B Smith, M J Heslin, R B Diasio. Quantitation of dihydropyrimidine dehydrogenase expression by real-time reverse transcription polymerase chain reaction. Anal. Biochem. 2000; 278:175-184). A decrease in mitochondrial DNA content in cells grown in the presence of drug indicated mitochondrial toxicity.
(§2) The effect of compounds 7 and 9 on the levels of mitochondrial and nuclear DNA, and lactic acid production was evaluated in HepG2 cells (14-day assay), and the data is tabulated below in Table 2: […]

[2] = system: nuclear DNA in HepG2 cells; assay: Mitochondrial toxicity assay in HepG2 cells: nuclear DNA; format: cell-based
Text: as §1, §2

HepG2 cells = assay: Lactic acid production in HepG2 cells; format: cell-based; settings: 14-day assay, 10 μM
Description: To measure the effects of the compounds on lactic acid production, HepG2 cells from a stock culture were diluted and plated in 12-well culture plates at 2.5×10^4 cells per well. Various concentrations (0 μM, 0.1 μM, 1 μM, 10 μM and 100 μM) of compound were added, and the cultures were incubated at 37° C. in a humidified 5% CO2 atmosphere for 4 days. At day 4, the number of cells in each well was determined and the culture medium collected. The culture medium was then filtered, and the lactic acid content in the medium was determined using a colorimetric lactic acid assay (Sigma-Aldrich). Since lactic acid product can be considered a marker for impaired mitochondrial function, elevated levels of lactic acid production detected in cells grown in the presence of test compounds would indicate a drug-induced cytotoxic effect.
as §2

wild type HBV = assay: Anti-HBV assay in AD-38 cell line; format: cell-based; settings: Hepatitis B virus, AD-38 cells, HBV in culture supernatant; for pEC50: read-out: Anti-HBV activity EC50; for EC90: read-out: Anti-HBV activity EC90
Description: The anti-HBV activity of the compounds was determined by treating the AD-38 cell line carrying wild type HBV under the control of tetracycline (see Ladner S. K., Otto M. J., Barker C. S., Zaifert K., Wang G. H., Guo J. T., Seeger C. & King R. W. Antimicrob. Agents Chemother. 1997, 41, 1715-20). Removal of tetracycline from the medium [Tet (−)] results in the production of HBV. The levels of HBV in the culture supernatant fluids from cells treated with the compounds were compared with that of the untreated controls. Control cultures with tetracycline [Tet (+)] were also maintained to determine the basal levels of HBV expression. 3TC was included as positive control.
The median effective concentrations (EC50) ranges of several of the compounds described herein against HBV are shown in Table 3: […]

[3] = Cellular toxicity assay in human PBM cells; format: cell-based; settings: human, human PBM cells, read-out: Cytotoxicity
Description: (§3) The toxicity of the compounds was assessed in Vero, human PBM, CEM (human lymphoblastoid), MT-2, and HepG2 cells, as described previously (see Schinazi R. F., Sommadossi J.-P., Saalmann V., Cannon D. L., Xie M.-Y., Hart G. C., Smith G. A. & Hahn E. F. Antimicrob. Agents Chemother. 1990, 34, 1061-67). Cycloheximide was included as positive cytotoxic control, and untreated cells exposed to solvent were included as negative controls. The cytotoxicity IC50 was obtained from the concentration-response curve using the median effective method described previously (see Chou T.-C. & Talalay P. Adv. Enzyme Regul. 1984, 22, 27-55; Belen'kii M. S. & Schinazi R. F. Antiviral Res. 1994, 25, 1-11).

[4] = Cellular toxicity assay in CEM cells; format: cell-based; settings: human, CEM lymphoblastoid cells, read-out: Cytotoxicity
Description: as §3

[5] = Cellular toxicity assay in Vero cells; format: cell-based; settings: African green monkey, read-out: Cytotoxicity
Description: as §3

[6] = Cellular toxicity assay in HepG2 cells; format: cell-based; settings: human, read-out: Cytotoxicity
Description: as §3

HBV Cp149 = biological target: T1, HBV Cp149 (Hepatitis B virus genotype D subtype adw, UniProt P03147); assay: Capsid formation assay, electron micrographs; format: biochemical; settings: 25 μM compound
T1 construct: hepatitis B virus core C-terminally truncated protein (HBV Cp149); made in house
Description: In the absence of compounds which disrupt capsid formation, hepatitis B virus core C-terminally truncated protein (HBV Cp149, protein isolated by reported methods [Zlotnick, A et al; Biochem 1996, 35, 7412-7421] normally assembles into an HBV Cp149 capsid. The purpose of this example was to determine whether putative active agents would disrupt capsid formation, and thus be active as anti-HBV agents. Putative active agents were incubated at a concentration of 25 μM for 1 h at 4° C. with HBV Cp149 at a concentration of 10 μM. Capsid assembly was then promoted by adding 300 mM NaCl, and storing the mixture overnight at 4°. Negative-stain electron micrographs were collected using a JEOL JEM-1400 120 kV electron microscope using uranyl acetate as a contrast agent.

HBV Cp149 capsids = biological target: T2, HBV Cp149 capsids (Hepatitis B virus genotype D subtype adw, UniProt P03147); assay: Disruption of already-formed capsids, electron micrographs; format: biochemical; settings: 25 μM compound, overnight at 4°, FIG. 2-4
T2 construct: hepatitis B virus core C-terminally truncated protein (HBV Cp149); made in house
Description: The next question was whether these compounds could disrupt already-formed capsids. Accordingly, the capsids were formed as discussed above (incubation of isolated HBV Cp149 with 300 mM NaCl, stored overnight at 4°). Then, the capsids were incubated with the putative compound (overnight at 4°), and electron micrographs were then taken.

[7] = HepG2 cells, 14-day assay, 10 μM

T1 sequence (P03147 1-149): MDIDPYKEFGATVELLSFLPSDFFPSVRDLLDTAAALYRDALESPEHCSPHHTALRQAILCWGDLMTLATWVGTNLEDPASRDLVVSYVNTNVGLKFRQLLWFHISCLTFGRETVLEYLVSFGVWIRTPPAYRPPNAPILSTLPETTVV
T2 sequence (P03147 1-149): as above

Structure (SMILES) | pEC50 (wild type HBV) | EC90 (wild type HBV) [µM] | CC50 [3] [µM] | CC50 [4] [µM] | CC50 [5] [µM] | CC50 [6] [µM] | other results
Nc1ccn([C@@H]2CS[C@H](CO)O2)c(=O)n1 [Compound 3TC, lamivudine, reference compound] | 6.05 to 7.00 | 1 to 9 | – | – | – | – | MtDNA (% of control) [1, 7]: 130 (85.7-196) % of control; inhibition at 10 µM ([1]; Homo sapiens, HepG2, 336 h, read-out: % inhibition MtDNA): 8.8%; pIC50 ([1]; Homo sapiens, HepG2, 336 h): < 5.00; pIC50 ([2]; Homo sapiens, 336 h, HepG2 cells, 14-day assay): < 5.00; inhibition at 10 µM ([2]; Homo sapiens, HepG2, 336 h, read-out: % inhibition nDNA): 29.6%; Lactic acid production (% of control) (HepG2 cells): 94 ± 20.8 % of control
Cc1c(C(=O)C(=O)N2CCOCC2)c(C)n(C)c1C(=O)Nc1ccc(F)c(F)c1 [Compound 72, N-(3,4-difluorophenyl)-1,3,5-trimethyl-4-(2-morpholino-2-oxoacetyl)-1H-pyrrole-2-carboxamide] | 6.05 to 7.00 | 0.1 to 0.9 | 30 | 14 | 51 | 100 | –
C=CCNC(=O)C(=O)c1c(C)c(C(=O)Nc2ccc(F)c(F)c2)n(C)c1C [Compound 75, 4-(2-(allylamino)-2-oxoacetyl)-N-(3,4-difluorophenyl)-1,3,5-trimethyl-1H-pyrrole-2-carboxamide] | 8.05 to 9.00 | 0.01 to 0.09 | > 100 | 66 | 33 | > 100 | –
Cc1c(C(=O)C(=O)Nc2nccs2)c(C)n(C)c1C(=O)Nc1ccc(F)c(F)c1 [Compound 78, N-(3,4-difluorophenyl)-1,3,5-trimethyl-4-(2-oxo-2-(thiazol-2-ylamino)acetyl)-1H-pyrrole-2-carboxamide] | 8.05 to 9.00 | 0.01 to 0.09 | > 100 | 15 | > 100 | 84 | –
Cc1c(C(=O)C(=O)NCC#N)c(C)n(C)c1C(=O)Nc1ccc(F)c(F)c1 [Compound 81, 4-(2-((cyanomethyl)amino)-2-oxoacetyl)-N-(3,4-difluorophenyl)-1,3,5-trimethyl-1H-pyrrole-2-carboxamide] | 8.05 to 9.00 | 0.1 to 0.9 | 30 | 33 | > 100 | 71 | –
Cc1c(C(=O)C(=O)NCc2nn[nH]n2)c(C)n(C)c1C(=O)Nc1ccc(F)c(F)c1 [Compound 82, 4-(2-(((2H-tetrazol-5-yl)methyl)amino)-2-oxoacetyl)-N-(3,4-difluorophenyl)-1,3,5-trimethyl-1H-pyrrole-2-carboxamide] | 5.05 to 6.00 | – | > 100 | > 100 | > 100 | > 100 | –
Cc1c(C(=O)C(=O)NCC#Cc2nccn2C)c(C)n(C)c1C(=O)Nc1ccc(F)c(F)c1 [Compound 83, N-(3,4-difluorophenyl)-1,3,5-trimethyl-4-(2-((3-(1-methyl-1H-imidazol-2-yl)prop-2-yn-1-yl)amino)-2-oxoacetyl)-1H-pyrrole-2-carboxamide] | 5.05 to 6.00 | – | 7 | 4 | 7 | 42 | –
CCOC(=O)C1=C(CN2CCOCC2)NC(c2nccs2)=NC1c1ccc(F)cc1Br (stereo not drawn) [GLS4, Morphothiadine mesilate] | – | – | – | – | – | – | Effect on capsid formation (HBV Cp149; 10 μM HBV Cp149, 300 mM NaCl, FIG. 1): misassembled hollow spheres; also recorded: capsid formation was disrupted; Size of the hollow spheres formed (HBV Cp149; 10 μM HBV Cp149, vehicle approximately 40 nm): 80-100 nm; Effect on already-formed capsids (HBV Cp149 capsids): misassembled hollow spheres; also recorded: the capsids were disrupted
Nc1ccn([C@H]2CC[C@@H](CO)O2)c(=O)n1 [ddC, reference compound] | – | – | – | – | – | – | MtDNA (% of control) [1]: 5.3 (5.0-5.8) % of control; % inhibition MtDNA [1, 7]: 97.4%; pIC50 ([1]; HepG2 cells, 14-day assay): > 5.00; pIC50 ([2]; HepG2 cells, 14-day assay): > 5.00; % inhibition nDNA [2, 7]: 52.4%; Lactic acid production (% of control) (HepG2 cells): 196 ± 73.0 % of control
